Experiment: Binding affinity against human Alpha-1b adrenergic receptor

Row | Ki | SMILES
1 | 1150 nM | O=C(c1nc(-c2c[nH]c3ccccc23)c[nH]1)c1c[nH]c2cc(O)ccc12
2 | 520 nM | Brc1ccc2c(-c3c[nH]c(-c4c[nH]c5cc(Br)ccc45)n3)c[nH]c2c1 [Nortopsentin A]
3 | 130 nM | Brc1ccc2c(-c3nc(-c4c[nH]c5ccccc45)c[nH]3)c[nH]c2c1 [Nortopsentin B]
4 | 170 nM | Brc1ccc2c(-c3c[nH]c(-c4c[nH]c5ccccc45)n3)c[nH]c2c1 [Nortopsentin C]
5 | 740 nM | O=C(c1nc(-c2c[nH]c3cc(Br)ccc23)c[nH]1)c1c[nH]c2cc(O)ccc12 [topsentin B2]

Source: BindingDB's records for doi:10.1016/0960-894X(96)00376-9 (1996)
